Data as given in patent US6914045B2, “Glycopeptide antibiotics” (Wyeth Holdings Corporation, priority 2001, dated 2005).
In brackets after ≈: the same amount, converted by molar mass.

Tests used:
Assay in all cases: in vitro antibacterial evaluation, MIC by broth dilution
Assay type in all cases: cell-based
[1] = system: Staphylococcus sp.; settings: broth dilution, 18 hours at 35° C.; for MIC Staphylococcus aureus (ATCC 29213): strain ATCC 29213; for MIC Staphylococcus aureus (GC 1131): strain GC 1131; for MIC Staphylococcus aureus (GC 3051): strain GC 3051; for MIC Staphylococcus aureus (GC 3053): strain GC 3053; for MIC Staphylococcus aureus (GC 4541): strain GC 4541; for MIC Staphylococcus aureus (GC 4542): strain GC 4542; for MIC Staphylococcus aureus-SMITH (GC 4543): strain GC 4543; for MIC Staphylococcus aureus (GC 4544): strain GC 4544; for MIC Staphylococcus aureus (GC 4545): strain GC 4545; for MIC Staphylococcus haemolyticus (GC 4546): strain GC 4546; for MIC Coagulase Negative Staphylococcus (GC 4547): strain GC 4547; for MIC Coagulase Negative Staphylococcus (GC 4548): strain GC 4548; for MIC Coagulase Negative Staphylococcus (GC 4549): strain GC 4549; for MIC Coagulase Negative Staphylococcus (GC 4551): strain GC 4551; for MIC Coagulase Negative Staphylococcus (GC 6257): strain GC 6257
Experimental: (§1) Methods for in vitro Antibacterial Evaluation (Table 1)
(§2) The minimum inhibitory concentration (MIC), the lowest concentration of the antibiotic which inhibits growth of the test organism, is determined by the broth dilution method using Muller-Hinton II […] (Baltimore Biological Laboratories) following the recommendations of the National Committee for Clinical Laboratory Standards [Methods for dilution antimicrobial susceptibility tests for bacteria that grow aerobically, approved standard M7-A2, National Committee for Clinical Laboratory Standards, Villanova, Pa.].
(§3) An inoculum level of 5×10^5 CFU/mL, and a range of antibiotic concentrations (64-0.06 μg/mL) is used. […] The test organisms include a spectrum of Gram-positive bacteria comprised of Staphylococcus sp., Streptococcus sp. and Enterococcus sp. These organisms include recent clinical isolates that are resistant to methicillin, penicillin and/or vancomycin.

[2] = system: Enterococcus sp.; settings: broth dilution, 18 hours at 35° C.
Experimental: as §1, §2, §3

[3] = system: Streptococcus sp.; settings: broth dilution, 18 hours at 35° C.
Experimental: as §1, §2, §3

[4] = system: Escherichia coli; settings: 18 hours at 35° C.

SMILES: CC(c1ccccc1)C1NC(=O)CNC(=O)C(CO)NC(=O)C(C(O)C2CNC(=N)N2C2OC(CO)C(O)C(O)C2O)NC(=O)C(C(O)C2CNC(=N)N2)NC(=O)C(Cc2ccc(OC3OC(CO)C(OC4OC(CO)C(O)C5OC6(CCCCCCCCCCCC6)OC45)C(O)C3O)cc2)NC1=O (stereo not drawn) [Example 210a]
- MIC Staphylococcus aureus (ATCC 29213) [1]: 4 µg/mL (≈ 2.71 µM)
- MIC Staphylococcus aureus (GC 1131) [1]: 4 µg/mL (≈ 2.71 µM)
- MIC Staphylococcus aureus (GC 3051) [1]: 8 µg/mL (≈ 5.43 µM)
- MIC Staphylococcus aureus (GC 3053) [1]: 4 µg/mL (≈ 2.71 µM)
- MIC Staphylococcus aureus (GC 4541) [1]: 4 µg/mL (≈ 2.71 µM)
- MIC Staphylococcus aureus (GC 4542) [1]: 8 µg/mL (≈ 5.43 µM)
- MIC Staphylococcus aureus-SMITH (GC 4543) [1]: 4 µg/mL (≈ 2.71 µM)
- MIC Staphylococcus aureus (GC 4544) [1]: 8 µg/mL (≈ 5.43 µM)
- MIC Staphylococcus aureus (GC 4545) [1]: 4 µg/mL (≈ 2.71 µM)
- MIC Staphylococcus haemolyticus (GC 4546) [1]: 8 µg/mL (≈ 5.43 µM)
- MIC Coagulase Negative Staphylococcus (GC 4547) [1]: 4 µg/mL (≈ 2.71 µM)
- MIC Coagulase Negative Staphylococcus (GC 4548) [1]: 4 µg/mL (≈ 2.71 µM)
- MIC Coagulase Negative Staphylococcus (GC 4549) [1]: 2 µg/mL (≈ 1.36 µM)
- MIC Coagulase Negative Staphylococcus (GC 4551) [1]: 4 µg/mL (≈ 2.71 µM)
- MIC Coagulase Negative Staphylococcus (GC 6257) [1]: 4 µg/mL (≈ 2.71 µM)
- MIC Enterococcus avium (GC 4558) [2]: 4 µg/mL (≈ 2.71 µM)
- MIC Enterococcus faecalis (ATCC 29212) [2]: 8 µg/mL (≈ 5.43 µM)
- MIC Enterococcus faecalis (GC 2242) [2]: 8 µg/mL (≈ 5.43 µM)
- MIC Enterococcus faecalis (GC 2691) [2]: 8 µg/mL (≈ 5.43 µM)
- MIC Enterococcus faecalis (GC 3059) [2]: 8 µg/mL (≈ 5.43 µM)
- MIC Enterococcus faecalis (GC 4552) [2]: 8 µg/mL (≈ 5.43 µM)
- MIC Enterococcus faecalis (GC 4553) [2]: 8 µg/mL (≈ 5.43 µM)
- MIC Enterococcus faecalis (GC 4554) [2]: 8 µg/mL (≈ 5.43 µM)
- MIC Enterococcus faecalis (GC 6189) [2]: 8 µg/mL (≈ 5.43 µM)
- MIC Enterococcus faecium (GC 2243) [2]: 4 µg/mL (≈ 2.71 µM)
- MIC Enterococcus faecium (GC 4556) [2]: 8 µg/mL (≈ 5.43 µM)
- MIC Enterococcus faecium (GC 4557) [2]: 4 µg/mL (≈ 2.71 µM)
- MIC Enterococcus faecalis (ATCC 29212) ([2]; inoculum 5×10^5 CFU/mL, strain ATCC 29212): 8 µg/mL (≈ 5.43 µM)
- MIC Enterococcus faecalis (GC 2242) ([2]; inoculum 5×10^5 CFU/mL, strain GC 2242): 8 µg/mL (≈ 5.43 µM)
- MIC Enterococcus faecium (GC 2243) ([2]; inoculum 5×10^5 CFU/mL, strain GC 2243): 4 µg/mL (≈ 2.71 µM)
- MIC Enterococcus faecalis (GC 2691) ([2]; inoculum 5×10^5 CFU/mL, strain GC 2691): 8 µg/mL (≈ 5.43 µM)
- MIC Enterococcus faecalis (GC 3059) ([2]; inoculum 5×10^5 CFU/mL, strain GC 3059): 8 µg/mL (≈ 5.43 µM)
- MIC Enterococcus faecalis (GC 4552) ([2]; inoculum 5×10^5 CFU/mL, strain GC 4552): 8 µg/mL (≈ 5.43 µM)
- MIC Enterococcus faecalis (GC 4553) ([2]; inoculum 5×10^5 CFU/mL, strain GC 4553): 8 µg/mL (≈ 5.43 µM)
- MIC Enterococcus faecalis (GC 4554) ([2]; inoculum 5×10^5 CFU/mL, strain GC 4554): 8 µg/mL (≈ 5.43 µM)
- MIC Enterococcus faecium (GC 4556) ([2]; inoculum 5×10^5 CFU/mL, strain GC 4556): 8 µg/mL (≈ 5.43 µM)
- MIC Enterococcus faecium (GC 4557) ([2]; inoculum 5×10^5 CFU/mL, strain GC 4557): 4 µg/mL (≈ 2.71 µM)
- MIC Enterococcus avium (GC 4558) ([2]; inoculum 5×10^5 CFU/mL, strain GC 4558): 4 µg/mL (≈ 2.71 µM)
- MIC Enterococcus faecalis (GC 6189) ([2]; inoculum 5×10^5 CFU/mL, strain GC 6189): 8 µg/mL (≈ 5.43 µM)
- MIC Streptococcus agalactiae (GC 4564) [3]: 2 µg/mL (≈ 1.36 µM)
- MIC Streptococcus pneumoniae (ATCC 6301) [3]: 0.5 µg/mL (≈ 0.339 µM)
- MIC Streptococcus pneumoniae (GC 1894) [3]: <0.06 µg/mL
- MIC Streptococcus pneumoniae (GC 4565) [3]: 0.25 µg/mL (≈ 0.17 µM)
- MIC Streptococcus pyogenes (GC 4563) [3]: 1 µg/mL (≈ 0.679 µM)
- MIC Streptococcus pneumoniae (ATCC 6301) ([3]; inoculum 5×10^5 CFU/mL, strain ATCC 6301): 0.5 µg/mL (≈ 0.339 µM)
- MIC Streptococcus pneumoniae (GC 1894) ([3]; inoculum 5×10^5 CFU/mL, strain GC 1894): <0.06 µg/mL
- MIC Streptococcus pyogenes (GC 4563) ([3]; inoculum 5×10^5 CFU/mL, strain GC 4563): 1 µg/mL (≈ 0.679 µM)
- MIC Streptococcus agalactiae (GC 4564) ([3]; inoculum 5×10^5 CFU/mL, strain GC 4564): 2 µg/mL (≈ 1.36 µM)
- MIC Streptococcus pneumoniae (GC 4565) ([3]; inoculum 5×10^5 CFU/mL, strain GC 4565): 0.25 µg/mL (≈ 0.17 µM)
- MIC Escherichia coli (ATCC 25922) [4]: >64 µg/mL
- MIC Escherichia coli (GC 4559) [4]: >64 µg/mL
- MIC Escherichia coli (GC 4560) [4]: 16 µg/mL (≈ 10.9 µM)

SMILES: Cc1ccc(OC(=O)Nc2cc(CC3NC(=O)C(C(C)c4ccccc4)NC(=O)CNC(=O)C(CO)NC(=O)C(C(O)C4CNC(=N)N4C4OC(CO)C(O)C(O)C4O)NC(=O)C(C(O)C4CNC(=N)N4)NC3=O)ccc2O)cc1 (stereo not drawn) [Example 19, Cyclo[glycyl-β-methylphenylalanyl-3-[[(4-methylphenoxy)carbonyl]amino]tyrosyl-3-(2-iminoimidazolidin-4-yl)seryl-3-(3-hexopyranosyl-2-iminoimidazolidin-4-yl)serylseryl]]
- MIC Staphylococcus aureus (ATCC 29213) [1]: >128 µg/mL
- MIC Staphylococcus aureus (GC 1131) [1]: >128 µg/mL
- MIC Staphylococcus aureus (GC 3051) [1]: >128 µg/mL
- MIC Staphylococcus aureus (GC 3053) [1]: >128 µg/mL
- MIC Staphylococcus aureus (GC 4541) [1]: >128 µg/mL
- MIC Staphylococcus aureus (GC 4542) [1]: >128 µg/mL
- MIC Staphylococcus aureus-SMITH (GC 4543) [1]: >128 µg/mL
- MIC Staphylococcus aureus (GC 4544) [1]: >128 µg/mL
- MIC Staphylococcus aureus (GC 4545) [1]: >128 µg/mL
- MIC Staphylococcus haemolyticus (GC 4546) [1]: >128 µg/mL
- MIC Coagulase Negative Staphylococcus (GC 4547) [1]: >128 µg/mL
- MIC Coagulase Negative Staphylococcus (GC 4548) [1]: >128 µg/mL
- MIC Coagulase Negative Staphylococcus (GC 4549) [1]: 128 µg/mL (≈ 114 µM)
- MIC Coagulase Negative Staphylococcus (GC 4551) [1]: >128 µg/mL
- MIC Coagulase Negative Staphylococcus (GC 6257) [1]: >128 µg/mL
- MIC Enterococcus faecalis (ATCC 29212) ([2]; strain ATCC 29212): >128 µg/mL
- MIC Enterococcus faecalis (GC 2242) ([2]; strain GC 2242): >128 µg/mL
- MIC Enterococcus faecium (GC 2243) ([2]; strain GC 2243): >128 µg/mL
- MIC Enterococcus faecalis (GC 2691) ([2]; strain GC 2691): >128 µg/mL
- MIC Enterococcus faecalis (GC 3059) ([2]; strain GC 3059): >128 µg/mL
- MIC Enterococcus faecalis (GC 4552) ([2]; strain GC 4552): >128 µg/mL
- MIC Enterococcus faecalis (GC 4553) ([2]; strain GC 4553): 128 µg/mL (≈ 114 µM)
- MIC Enterococcus faecalis (GC 4554) ([2]; strain GC 4554): >128 µg/mL
- MIC Enterococcus faecium (GC 4556) ([2]; strain GC 4556): >128 µg/mL
- MIC Enterococcus faecium (GC 4557) ([2]; strain GC 4557): 128 µg/mL (≈ 114 µM)
- MIC Enterococcus avium (GC 4558) ([2]; strain GC 4558): 128 µg/mL (≈ 114 µM)
- MIC Enterococcus faecalis (GC 6189) ([2]; strain GC 6189): >128 µg/mL
- MIC Streptococcus pneumoniae (ATCC 6301) ([3]; strain ATCC 6301): 128 µg/mL (≈ 114 µM)
- MIC Streptococcus pneumoniae (GC 1894) ([3]; strain GC 1894): 64 µg/mL (≈ 57.1 µM)
- MIC Streptococcus pyogenes (GC 4563) ([3]; strain GC 4563): >128 µg/mL
- MIC Streptococcus agalactiae (GC 4564) ([3]; strain GC 4564): >128 µg/mL
- MIC Streptococcus pneumoniae (GC 4565) ([3]; strain GC 4565): 128 µg/mL (≈ 114 µM)
- MIC Escherichia coli (ATCC 25922) ([4]; strain ATCC 25922, broth dilution): 128 µg/mL (≈ 114 µM)
- MIC Escherichia coli (GC 4559) ([4]; strain GC 4559, broth dilution): 128 µg/mL (≈ 114 µM)
- MIC Escherichia coli (GC 4560) ([4]; strain GC 4560, broth dilution): 128 µg/mL (≈ 114 µM)
